Data from the supplement of paper PMC13386468.

Key:
Assay in all cases: IC50 for competition of protein binding to Kinobeads
Conditions in all cases: assay detail: Kinobeads competition in P. falciparum blood-stage lysate
[1] = target: UniProt Q8I4V7
[2] = target: UniProt Q8I2F2
[3] = target: UniProt Q6ZMA8
[4] = target: UniProt Q8I608
[5] = target: UniProt Q8IDN9
[6] = target: UniProt Q8II73
[7] = target: UniProt Q8I2H3
[8] = target: UniProt Q8IBI0
[9] = target: UniProt Q8IK12
[10] = target: UniProt Q8IDH5
[11] = target: UniProt Q8IE50
[12] = target: UniProt Q8IIE7
[13] = target: UniProt O97247
[14] = target: UniProt Q8I6S4
[15] = target: UniProt Q8I1P3
[16] = target: UniProt O96260
[17] = target: UniProt Q8IKM5
[18] = target: UniProt O77385
[19] = target: UniProt Q8I3X2
[20] = target: UniProt Q8IJ34
[21] = target: UniProt Q8IBN5
[22] = target: UniProt Q8I3Z1
[23] = target: UniProt Q8I4V8
Chain of UniProt Q8I4V8 (Q8I4V8 whole entry): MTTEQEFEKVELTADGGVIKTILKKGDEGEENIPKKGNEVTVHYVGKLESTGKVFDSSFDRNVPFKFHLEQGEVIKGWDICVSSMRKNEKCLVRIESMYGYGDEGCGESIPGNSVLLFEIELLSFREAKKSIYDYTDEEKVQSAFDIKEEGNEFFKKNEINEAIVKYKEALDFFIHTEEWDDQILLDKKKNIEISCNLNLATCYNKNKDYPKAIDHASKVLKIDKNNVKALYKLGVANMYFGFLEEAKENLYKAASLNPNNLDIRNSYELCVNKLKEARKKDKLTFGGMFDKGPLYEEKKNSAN

[24] = target: UniProt C6KT03
[25] = target: UniProt Q8IKF6
[26] = target: UniProt Q8I447
[27] = target: UniProt Q8IM23
[28] = target: UniProt Q8I5S6
[29] = target: UniProt Q8I374
[30] = target: UniProt Q8IB66
[31] = target: UniProt Q8ID72
[32] = target: UniProt Q8IID5
[33] = target: UniProt Q8I501
[34] = target: UniProt Q8IJZ9
[35] = target: UniProt Q8I5A6
[36] = target: UniProt Q8IIG7
Chain of UniProt Q8IIG7 (Q8IIG7 whole entry): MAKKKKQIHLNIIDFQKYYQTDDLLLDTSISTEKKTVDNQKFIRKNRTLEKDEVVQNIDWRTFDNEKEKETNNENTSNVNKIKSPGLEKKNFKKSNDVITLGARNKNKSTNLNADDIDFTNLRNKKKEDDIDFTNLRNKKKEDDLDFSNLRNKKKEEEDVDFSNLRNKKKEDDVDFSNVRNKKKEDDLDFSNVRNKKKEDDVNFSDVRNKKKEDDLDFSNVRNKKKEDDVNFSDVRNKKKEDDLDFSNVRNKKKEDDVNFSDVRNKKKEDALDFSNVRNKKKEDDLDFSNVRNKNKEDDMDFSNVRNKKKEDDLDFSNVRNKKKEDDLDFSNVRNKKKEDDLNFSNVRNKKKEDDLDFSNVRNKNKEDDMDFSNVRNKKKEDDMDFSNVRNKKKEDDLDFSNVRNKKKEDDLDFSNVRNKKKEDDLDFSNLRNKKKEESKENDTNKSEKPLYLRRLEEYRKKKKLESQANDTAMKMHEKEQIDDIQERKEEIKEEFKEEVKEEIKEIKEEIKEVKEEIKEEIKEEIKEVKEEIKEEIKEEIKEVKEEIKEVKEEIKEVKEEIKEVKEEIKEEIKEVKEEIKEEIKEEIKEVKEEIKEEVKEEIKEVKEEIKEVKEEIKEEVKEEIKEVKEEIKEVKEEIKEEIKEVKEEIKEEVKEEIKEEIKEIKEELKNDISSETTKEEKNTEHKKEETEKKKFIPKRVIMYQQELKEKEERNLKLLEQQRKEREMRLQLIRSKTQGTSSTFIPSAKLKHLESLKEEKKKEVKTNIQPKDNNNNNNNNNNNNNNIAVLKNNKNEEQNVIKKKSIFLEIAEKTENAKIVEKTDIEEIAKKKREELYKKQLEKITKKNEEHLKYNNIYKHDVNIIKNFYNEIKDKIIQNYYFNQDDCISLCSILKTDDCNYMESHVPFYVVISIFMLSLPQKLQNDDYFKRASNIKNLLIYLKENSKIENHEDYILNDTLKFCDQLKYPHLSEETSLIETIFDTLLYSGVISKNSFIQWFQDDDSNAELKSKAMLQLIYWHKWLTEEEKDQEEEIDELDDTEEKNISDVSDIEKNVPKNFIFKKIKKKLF

[37] = target: UniProt Q8IJR8
[38] = target: UniProt Q8IBQ6
[39] = target: UniProt C6KSX2
[40] = target: UniProt Q8I468
[41] = target: UniProt Q8II00
[42] = target: UniProt C6KTA7
[43] = target: UniProt Q8IIJ6
Chain of UniProt Q8IIJ6 (Q8IIJ6 whole entry): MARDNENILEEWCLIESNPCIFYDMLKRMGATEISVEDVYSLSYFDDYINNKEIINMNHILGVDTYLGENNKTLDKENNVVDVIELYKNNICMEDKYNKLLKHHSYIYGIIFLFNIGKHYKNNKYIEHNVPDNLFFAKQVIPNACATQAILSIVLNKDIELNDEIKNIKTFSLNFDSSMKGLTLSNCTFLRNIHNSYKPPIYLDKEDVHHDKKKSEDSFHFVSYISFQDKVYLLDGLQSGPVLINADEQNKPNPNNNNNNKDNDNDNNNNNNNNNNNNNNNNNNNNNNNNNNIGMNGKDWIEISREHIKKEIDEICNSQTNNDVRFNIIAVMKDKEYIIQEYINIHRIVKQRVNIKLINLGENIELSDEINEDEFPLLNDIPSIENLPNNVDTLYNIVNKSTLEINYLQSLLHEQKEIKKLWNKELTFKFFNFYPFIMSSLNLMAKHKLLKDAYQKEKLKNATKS

[44] = target: UniProt Q8IBT7
[45] = target: UniProt Q8IIM4
[46] = target: UniProt O96198
[47] = target: UniProt O97240
Chain of UniProt O97240 (O97240 whole entry): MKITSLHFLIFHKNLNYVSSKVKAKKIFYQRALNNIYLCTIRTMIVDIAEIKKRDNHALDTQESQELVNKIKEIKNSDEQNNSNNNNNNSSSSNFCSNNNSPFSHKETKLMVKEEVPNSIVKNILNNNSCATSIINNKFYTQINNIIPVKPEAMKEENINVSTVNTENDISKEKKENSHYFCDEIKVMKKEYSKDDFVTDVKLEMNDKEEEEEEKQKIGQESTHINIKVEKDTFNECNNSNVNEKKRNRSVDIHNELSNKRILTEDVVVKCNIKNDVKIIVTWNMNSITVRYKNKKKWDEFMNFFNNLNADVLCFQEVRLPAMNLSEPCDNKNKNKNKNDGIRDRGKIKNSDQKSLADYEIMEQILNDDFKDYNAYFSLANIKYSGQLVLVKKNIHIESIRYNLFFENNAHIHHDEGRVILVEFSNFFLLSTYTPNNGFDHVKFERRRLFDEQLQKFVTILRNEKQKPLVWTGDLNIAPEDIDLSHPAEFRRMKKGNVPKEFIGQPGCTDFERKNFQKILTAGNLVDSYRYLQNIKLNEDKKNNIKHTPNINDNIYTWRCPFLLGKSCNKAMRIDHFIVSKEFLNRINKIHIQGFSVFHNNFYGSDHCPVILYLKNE

[48] = target: UniProt Q8IEU2
[49] = target: UniProt Q8I5V9
[50] = target: UniProt C0H4S8
[51] = target: UniProt Q8IBZ2
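Further: native unpurified kinases from lysate captured on beads bearing immobilized kinase inhibitors, with bead-bound kinases quantified by mass spectrometry across compound doses.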

Compound O=c1[nH]c2ccc(Cl)cc2c(NC2CN3CCC2CC3)c1-c1nc2ccccc2[nH]1 (stereo unspecified) [CHIR-124] has an IC50 [1] of over 20 µM, an IC50 [2] of over 20 µM and an IC50 [3] of over 20 µM. For the same compound, the IC50 [4] was over 20 µM, the IC50 [5] was over 20 µM and the IC50 [6] was over 20 µM. For the same compound, the IC50 [7] was over 20 µM, the IC50 [8] was over 20 µM and the IC50 [9] was over 20 µM. For the same compound, the IC50 [10] was over 20 µM, the IC50 [11] was over 20 µM and the IC50 [12] was 0.177 µM. For the same compound, the IC50 [13] was over 20 µM, the IC50 [14] was over 20 µM and the IC50 [15] was over 20 µM. The IC50 [16] was over 20 µM, the IC50 [17] was over 20 µM and the IC50 [18] was over 20 µM. The IC50 [19] was over 20 µM, the IC50 [20] was over 20 µM and the IC50 [21] was over 20 µM. For the same compound, the IC50 [22] was over 20 µM, the IC50 [23] was over 20 µM and the IC50 [24] was over 20 µM. It also gave an IC50 [25] of over 20 µM, an IC50 [26] of over 20 µM and an IC50 [27] of over 20 µM. For the same compound, the IC50 [28] was over 20 µM, the IC50 [29] was over 20 µM and the IC50 [30] was over 20 µM. For the same compound, the IC50 [31] was over 20 µM, the IC50 [32] was over 20 µM and the IC50 [33] was over 20 µM. For the same compound, the IC50 [34] was over 20 µM, the IC50 [35] was over 20 µM and the IC50 [36] was over 20 µM. It also gave an IC50 [37] of 0.649 µM, an IC50 [38] of over 20 µM and an IC50 [39] of over 20 µM. The IC50 [40] was over 20 µM, the IC50 [41] was over 20 µM and the IC50 [42] was over 20 µM. For the same compound, the IC50 [43] was over 20 µM, the IC50 [44] was over 20 µM and the IC50 [45] was over 20 µM. For the same compound, the IC50 [46] was over 20 µM, the IC50 [47] was over 20 µM and the IC50 [48] was over 20 µM. It also gave an IC50 [49] of over 20 µM, an IC50 [50] of over 20 µM and an IC50 [51] of over 20 µM.
